Holding throughout (format): cell-based
Assay [1] relates to Staphylococcus epidermidis (S. epidermidis). The assay is described as follows: Effect on growth of beneficial bacteria (optical density after culture in TSB). As to conditions: for Effect on increase in beneficial bacteria (in words): Table 7; for Beneficial bacteria (S. epidermidis), average degree of increase or decrease compared to the untreated group: inoculated at a concentration of 1%, rotary culture 37° C. 16 hours.

Assay [2] concerns Staphylococcus aureus (S. aureus). The assay is described as follows: Effect on growth of harmful bacteria (optical density after culture in TSB). As to conditions: for Effect on reduction in harmful bacteria (in words): Table 7; for Harmful bacteria (S. aureus), average degree of increase or decrease compared to the untreated group: inoculated at a concentration of 1%, rotary culture 37° C. 16 hours.

The test system of assay [3] is mouse Raw 264.7 cell line. The experiment in a line: Suppression of inflammatory factor NO (Griess reagent, LPS-treated cells). As to conditions: 20 µg/mL, 1 µg/mL LPS, 24 hours, control group. Here is the method:
In order to identify the effect of the complexes of Preparation Examples on the production of NO as an inflammatory factor in cells, a mouse Raw 264.7 cell line was used, and a culture medium whose final pH was adjusted to 8.5 through addition of NaOH to Complete RPMI (RPMI:FBS:antibiotic = 10:1:0.1) was used as an initial culture medium.
When the Raw 264.7 cells appeared at the top of the culture medium after culture at 37° C. in the presence of 5% carbon dioxide for 24 hours, the cells were seeded in a 24-well plate in which a DMEM culture was prepared, followed by culture at 37° C. in the presence of 5% carbon dioxide for 24 hours. Thereafter, treatment was performed after diluting the complexes according to Preparation Examples 1 to 7 by the following concentrations while replacing the medium with a serum-free DMEM culture medium, followed by additional treatment of 1 µg/mL of LPS. After culture at 37° C. in the presence of 5% carbon dioxide for 24 hours, the supernatant was mixed with Griess reagent (Sigma-Aldrich) in a ratio of 1:1 to evaluate the ability to inhibit NO production with absorbance, and the average value was shown in Table 9 below.
NO production inhibition ability (%) = {1 - (NO production when compound is added / NO production in untreated group)} × 100
20 µg/mL of L-NMMA1 (N^G-Methyl-L-arginine acetate salt), an NO inhibitor, was used as a control group.

For the next assay, the system named is human skin fibroblasts. The experiment in a line: Collagen biosynthesis rate (procollagen type I C-peptide EIA kit). As to conditions: 10 ng/mL, 48 hours, control group. Here is the method: The effect of the complexes of Preparation Examples on the collagen biosynthesis rate in the human skin fibroblasts was identified. Skin fibroblasts were cultured in complete DMEM culture at 37° C. in the presence of 5% carbon dioxide for 72 hours. After seeding in a 24-well plate, culture was performed at 37° C. in the presence of 5% carbon dioxide for 24 hours. After treating the complexes according to Preparation Examples and culturing at 37° C. in the presence of 5% carbon dioxide for 48 hours, only the supernatant was separated, and the collagen synthesis effect was observed by absorbance using a procollagen type I C-peptide (PIP) EIA kit.
Collagen biosynthesis increase rate (%) = {(Absorbance of complex treated group -Absorbance of untreated group) / Absorbance of untreated group} × 100
10 ng/mL of TGF-β, a cytokine, was used as a control group.

The subject of assay [4] is human dermal papilla cells. The experiment in a line: Activity of dermal papilla cells (CCK-8, optical density at 450 nm). As to conditions: 1 µM, control group. Here is the method: In order to identify the effect of the complexes of Preparation Examples on dermal papilla cells, human dermal papilla cells (Promocell, C-12071) in the 4-8 passage were used as a cell line, and follicle dermal papilla cell growth media (Promocell, C-26501) were used as an initial culture medium.
Cells were seeded at a level of 3,000 to 6,000 cells per well in a 96-well plate, and cultured in an incubator at 37° C. in the presence of 5% carbon dioxide for 24 hours. Thereafter, the culture medium was replaced with DMEM medium supplemented with 0.1% fetal bovine serum (FBS) and cultured in an incubator at 37° C. in the presence of 5% carbon dioxide for 24 hours. Thereafter, the culture medium was replaced with DMEM supplemented with 0.1% FBS treated with the complexes according to Preparation Examples 1 to 7 by each concentration, followed by culture in an incubator at 37° C. in the presence of 5% carbon dioxide for 48 hours. After treating 10 µl of CCK-8 solutions per well, culture was performed at 37° C. for 1 hour, and optical density was measured at 450 nm.
The difference between the optical density measurement value and the initial measurement value after 48 hours for each well was standardized by dividing the difference by the initial measurement value for evaluation, and the average value was shown in Table 8 below. 1 µM minoxidil was treated as a control group. […]

For the compound Maltodextrin, in assay [1], the “Effect on increase in beneficial bacteria (in words)” value (shortened to “Effect on increase”) is “no significant effect” and the “Beneficial bacteria (S. epidermidis), average degree of increase or decrease compared to the untreated group” value amounted to 0.14%. Moreover, in assay [2], the “Effect on reduction in harmful bacteria (in words)” value (“Effect on reduction” below) is “no significant effect” and the “Harmful bacteria (S. aureus), average degree of increase or decrease compared to the untreated group” value was 1.43%.

For the compound Inulin, in assay [1], the “Effect on increase” value is reported as “no significant effect” and the “Beneficial bacteria (S. epidermidis), average degree of increase or decrease compared to the untreated group” value is 0.29%. Moreover, in assay [2], the “Effect on reduction” value is on record as “no significant effect” and the “Harmful bacteria (S. aureus), average degree of increase or decrease compared to the untreated group” value is given as -0.84%.

In the case of `CC(=O)O.CNC(=N)NCCC[C@H](N)C(=O)O` [L-NMMA1, N^G-Methyl-L-arginine acetate salt], in assay [3], the “NO production inhibition ability, Average” value was determined as 52.1%.

As for TGF-β, the “Collagen biosynthesis increase rate, Average” value in the assay with human skin fibroblasts was found to be 36.6%.

As to `Nc1cc(N2CCCCC2)nc(N)[n+]1[O-]` [Minoxidil, minoxidil], in assay [4], the “Dermal papilla cell activity, Average (optical density difference after 48 hours divided by initial value)” value is 44.2.

As for Beta-glucan, in assay [1], the “Effect on increase” value is on record as “no significant effect” and the “Beneficial bacteria (S. epidermidis), average degree of increase or decrease compared to the untreated group” value was -0.26%. Also, in assay [2], the “Effect on reduction” value is on record as “no significant effect” and the “Harmful bacteria (S. aureus), average degree of increase or decrease compared to the untreated group” value is recorded as -0.78%.

(Values after patent US20230338270A1, “COSMETIC COMPOSITION FOR SKIN IMPROVEMENT COMPRISING, AS ACTIVE INGREDIENTS, POLYSACCHARIDES, YEAST EXTRACT, AND STRAIN FERMENTATION PRODUCT WITH CHARACTERISTICS OF PROBIOTICS” (LG HOUSEHOLD & HEALTH CARE LTD., priority 2020, published 2023).)
